The results in this text go back to patent publication US9416125B2, “Substituted cycloalkenopyrazoles as BUB1 inhibitors for the treatment of cancer” (BAYER PHARMA AKTIENGESELLSCHAFT, priority 2012, dated 2016).

SMILES strings stand for the structures.

The subject of one test is HeLa cell line. Put plainly: Proliferation assay (crystal violet staining). The test is classed as cell-based. As to conditions: Homo sapiens, 96 h, 4 days incubation, range 0.001-10 μM, median, read-out: Biological Assay 2: Proliferation assay (HeLa cell line) median IC50. How it is done: Cultivated tumor cells (cells were ordered from ATCC, except HeLa-MaTu and HeLa-MaTu-ADR, which were ordered from EPO-GmbH, Berlin) were plated at a density of 1000 to 5000 cells/well, depending on the growth rate of the respective cell line, in a 96-well multititer plate in 200 μL of their respective growth medium supplemented 10% fetal calf serum. After 24 h, the cells of one plate (zero-point plate) were stained with crystal violet (see below), while the medium of the other plates was replaced by fresh culture medium (200 μL), to which the test substances were added in various concentrations (0 μM, as well as in the range of 0.001-10 μM; the final concentration of the solvent DMSO was 0.5%). The cells were incubated for 4 days in the presence of test substances. Cell proliferation was determined by staining the cells with crystal violet: the cells were fixed by adding 20 μL/measuring point of an 11% glutaric aldehyde solution for 15 min at rt. After three washing cycles of the fixed cells with water, the plates were dried at rt. The cells were stained by adding 100 μL/measuring point of a 0.1% crystal violet solution (pH 3.0). After three washing cycles of the stained cells with water, the plates were dried at rt. The dye was dissolved by adding 100 μL/measuring point of a 10% acetic acid solution. Absorbtion was determined by photometry at a wavelength of 595 nm. The change of cell number, in percent, was calculated by normalization of the measured values to the aborbtion values of the zero-point plate (=0%) and the absorbtion of the untreated (0 μm) cells (=100%). The IC50 values were determined by means of a 4 parameter fit.

Test [1] has as its target T1, catalytic domain of human Bub1 (amino acids 704-1085) (Homo sapiens, UniProt O43683).
T1 construct: catalytic domain of human Bub1 (amino acids 704-1085); His6 (N); made in house; host or cells: Hi5 insect cells
Put plainly: Bub1 kinase assay (TR-FRET). The test is classed as biochemical. As to conditions: 10 μM ATP, 1 μM peptide substrate, median, read-out: Biological Assay 1: Bub1 kinase assay median IC50. The source says:
Bub1-inhibitory activities of compounds described in the present invention were quantified using a time-resolved fluorescence energy transfer (TR-FRET) kinase assay which measures phosphorylation of the synthetic peptide Biotin-Ahx-VLLPKKSFAEPG (C-terminus in amide form), purchased from e.g. Biosyntan (Berlin, Germany) by the (recombinant) catalytic domain of human Bub1 (amino acids 704-1085), expressed in Hi5 insect cells with an N-terminal His6-tag and purified by affinity- (Ni-NTA) and size exclusion chromatography.
In a typical assay 11 different concentrations of each compound (0.1 nM, 0.33 nM, 1.1 nM, 3.8 nM, 13 nM, 44 nM, 0.15 μM, 0.51 μM, 1.7 μM, 5.9 μM and 20 μM) were tested in duplicate within the same microtiter plate. To this end, 100-fold concentrated compound solutions (in DMSO) were previously prepared by serial dilution (1:3.4) of 2 mM stocks in a clear low volume 384-well source microtiter plate (Greiner Bio-One, Frickenhausen, Germany), from which 50 nL of compounds were transferred into a black low volume test microtiter plate from the same supplier. Subsequently, 2 μL of Bub1 (the final concentration of Bub1 was adjusted depending on the activity of the enzyme lot in order to be within the linear dynamic range of the assay: typically ˜200 ng/mL were used) in aqueous assay buffer [50 mM Tris/HCl pH 7.5, 10 mM magnesium chloride (MgCl2), 200 mM potassium chloride (KCl), 1.0 mM dithiothreitol (DTT), 0.1 mM sodium ortho-vanadate, 1% (v/v) glycerol, 0.01% (w/v) bovine serum albumine (BSA), 0.005% (v/v) Trition X-100 (Sigma), 1× Complete EDTA-free protease inhibitor mixture (Roche)] were added to the compounds in the test plate and the mixture was incubated for 15 min at 22° C. to allow pre-equilibration of the putative enzyme-inhibitor complexes before the start of the kinase reaction, which was initiated by the addition of 3 μL 1.67-fold concentrated solution (in assay buffer) of adenosine-tri-phosphate (ATP, 10 μM final concentration) and peptide substrate (1 μM final concentration). The resulting mixture (5 μL final volume) was incubated at 22° C. during 60 min, and the reaction was stopped by the addition of 5 μL of an aqueous EDTA-solution (50 mM EDTA, in 100 mM HEPES pH 7.5 and 0.2% (w/v) bovine serum albumin) which also contained the TR-FRET detection reagents (0.2 μM streptavidin-XL665 [Cisbio Bioassays, Codolet, France] and 1 nM anti-phosho-Serine antibody [Merck Millipore, cat. #35-001] and 0.4 nM LANCE EU-W1024 labeled anti-mouse IgG antibody [Perkin-Elmer, product no. AD0077, alternatively a Terbium-cryptate-labeled anti-mouse IgG antibody from Cisbio Bioassays can be used]). The stopped reaction mixture was further incubated 1 h at 22° C. in order to allow the formation of complexes between peptides and detection reagents. Subsequently, the amount of product was evaluated by measurement of the resonance energy transfer from the Eu-chelate-antibody complex recognizing the Phosphoserine residue to the streptavidin-XL665 bound to the biotin moiety of the peptide. To this end, the fluorescence emissions at 620 nm and 665 nm after excitation at 330-350 nm were measured in GTR-FRET plate reader, e.g. a Rubystar or Pherastar (both from BMG Labtechnologies, Offenburg, Germany) or a Viewlux (Perkin-Elmer) and the ratio of the emissions (665 nm/622 nm) was taken as indicator for the amount of phosphorylated substrate. The data were normalised using two sets of (typically 32-) control wells for high- (=enzyme reaction without inhibitor=0%=Minimum inhibition) and low- (=all assay components without enzyme=100%=Maximum inhibition) Bub1 activity. IC50 values were calculated by fitting the normalized inhibition data to a 4-parameter logistic equation (Minimum, Maximum, IC50, Hill; Y=Max+(Min−Max)/(1+(X/IC50)Hill)).
A general note: Time-resolved FRET reads energy transfer from a long-lived donor to a nearby acceptor.

T1 sequence (O43683 704-1085): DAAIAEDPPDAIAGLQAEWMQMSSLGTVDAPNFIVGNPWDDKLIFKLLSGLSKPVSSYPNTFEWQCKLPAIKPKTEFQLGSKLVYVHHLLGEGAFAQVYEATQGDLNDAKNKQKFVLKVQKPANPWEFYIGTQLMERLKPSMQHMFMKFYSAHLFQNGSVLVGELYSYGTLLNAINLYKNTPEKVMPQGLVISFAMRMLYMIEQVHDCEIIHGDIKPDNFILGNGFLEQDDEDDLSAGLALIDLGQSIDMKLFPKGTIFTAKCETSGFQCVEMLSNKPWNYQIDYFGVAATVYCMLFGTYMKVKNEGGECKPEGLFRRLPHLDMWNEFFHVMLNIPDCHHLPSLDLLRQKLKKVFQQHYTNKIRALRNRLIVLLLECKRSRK

As to `N#Cc1cnccc1Nc1nc(-c2nn(Cc3ccccc3F)c3c2CCC3)ncc1OCCO` [Example 2-11-1, 4-({2-[1-(2-fluorobenzyl)-1,4,5,6-tetrahydrocyclopenta[c]pyrazol-3-yl]-5-(2-hydroxyethoxyl)pyrimidin-4-yl}amino)nicotinonitrile], the IC50 with HeLa cell line was at least 10000 nM; in test [1], 400 nM.
The like results for `CCOc1cc(F)c(Cn2nc(-c3ncc(OCCN(C)C)c(Nc4ccncc4)n3)c3c2CCC3)c(F)c1` [Example 2-3-1, 5-[2-(dimethylamino)ethoxy]-2-[1-(4-ethoxy-2,6-difluorobenzyl)-1,4,5,6-tetrahydrocyclopenta[c]pyrazol-3-yl]-N-(pyridin-4-yl)pyrimidin-4-amine] were, in that order, 1000 nM and 9 nM.
The like results for `COc1cnc(-c2nn(Cc3ccccc3F)c3c2CCCC3)nc1Nc1ccncc1` [Example 2-1-2, 2-[1-(2-fluoro-benzyl)-4,5,6,7-tetrahydro-1H-indazol-3-yl]-5-methoxy-N-(pyridin-4-yl)pyrimidin-4-amine] were, in that order, at least 10000 nM and 10 nM.
For the compound `COc1c(NC(C)=O)nc(-c2nn(Cc3ccccc3F)c3c2CCC3)nc1Nc1ccncc1` [Example 2-1-11, N-{2-[1-(2-fluoro-benzyl)-1,4,5,6-tetrahydrocyclopenta [c]pyrazol-3-yl]-5-methoxy-6-(pyridin-4-ylamino)pyrimidin-4-yl}acetamide], the IC50 in test [1] is 120 nM.
As to `CCOc1cc(F)c(Cn2nc(-c3ncc(OCCN4CCCC4)c(Nc4ccncc4)n3)c3c2CCC3)c(F)c1` [Example 2-3-3, 2-[1-(4-ethoxy-2,6-difluoro-benzyl)-1,4,5,6-tetrahydrocyclopenta [c]pyrazol-3-yl]-N-(pyridin-4-yl)-5-[2-(pyrrolidin-1-yl)ethoxy] pyrimidin-4-amine], the results for the IC50 (with HeLa cell line; in test [1]) were 1000 nM and 20 nM, respectively.
The like results for `CCOc1cc(F)c(Cn2nc(-c3ncc(O)c(N(CCN4CCCC4)c4ccncc4)n3)c3c2CCC3)c(F)c1` [Example 2-4-2, 2-[1-(4-ethoxy-2,6-difluoro-benzyl)-1,4,5,6-tetrahydrocyclopenta [c]pyrazol-3-yl]-4-{pyridin-4-yl[2-(pyrrolidin-1-yl)ethyl]amino} pyrimidin-5-ol] were, in that order, at least 10000 nM and 900 nM.
Consider `Oc1cnc(-c2nn(Cc3ccccc3F)c3c2CCC3)nc1Nc1ccncc1` [Example 2-1-13, 2-[1-(2-fluoro-benzyl)-1,4,5,6-tetrahydrocyclopenta [c]pyrazol-3-yl]-4-(pyridin-4-ylamino) pyrimidin-5-ol], for which the values for the IC50 (in the test on HeLa cell line; in test [1]) were at least 10000 nM and 300 nM, respectively.
Consider `COCC(=O)N(c1ccncc1)c1nc(-c2nn(Cc3ccccc3F)c3c2CCC3)nc(N)c1OC` [Example 2-12-1, N-{6-amino-2-[1-(2-fluorobenzyl)-1,4,5,6-tetrahydrocyclopenta[c]-pyrazol-3-yl]-5-methoxypyrimidin-4-yl}-2-methoxy-N-(pyridin-4-yl)acetamide], for which the IC50 in test [1] was determined as 6000 nM.
As for `COc1ccc(Cn2nc(-c3ncc(OC)c(Nc4ccncc4)n3)c3c2CCC3)cc1` [Example 2-1-3, 5-methoxy-2-[1-(4-methoxy-benzyl)-1,4,5,6-tetrahydrocyclopenta [c]pyrazol-3-yl]-N-(pyridin-4-yl)pyrimidin-4-amine], the IC50 in the test on HeLa cell line is at least 10000 nM; in test [1], 50 nM.
The like results for `CCOC(=O)c1cnccc1Nc1nc(-c2nn(Cc3ccccc3F)c3c2CCC3)ncc1OCC1(CO)COC1` [Example 2-3-4, ethyl 4-[(2-[1-(2-fluoro-benzyl)-1,4,5,6-tetrahydrocyclopenta [c]pyrazol-3-yl]-5-{[3-(hydroxymethyl)oxetan-3-yl]methoxy}pyrimidin-4-yl)amino] nicotinate] were, in that order, at least 10000 nM and 40 nM.
The like results for `N#Cc1cnccc1Nc1nc(-c2nn(Cc3ccccc3F)c3c2CCC3)ncc1O` [Example 2-2-2, 4-({2-[1-(2-fluoro-benzyl)-1,4,5,6-tetrahydrocyclopenta [c]pyrazol-3-yl]-5-hydroxy-pyrimidin-4-yl}amino) nicotinonitrile] were, in that order, 6000 nM and 70 nM.
`Nc1nc(-c2nn(Cc3ccccc3F)c3c2CCC3)nc(Nc2ccncc2)c1N1CCOCC1` [Example 2-1-5, 2-[1-(2-fluoro-benzyl)-1,4,5,6-tetrahydrocyclopenta [c]pyrazol-3-yl]-5-(morpholin-4-yl)-N-(pyridin-4-yl)pyrimidin-4,6-diamine]: the IC50 in test [1] was found to be 100 nM.
Still for that read-out and setting: the figure for `CCOC(=O)c1cnccc1Nc1nc(-c2nn(Cc3ccccc3F)c3c2CCC3)ncc1Oc1ccncc1C(=O)OCC` [Example 2-9-1, ethyl 4-[(4-{[3-(ethoxycarbonyl)pyridin-4-yl]amino}-2-[1-(2-fluorobenzyl)-1,4,5,6-tetrahydrocyclopenta[c]pyrazol-3-yl]pyrimidin-5-yl)oxy]nicotinate] is 500 nM.
On the same count and under the same terms, the figure for `Fc1ccccc1Cn1nc(-c2nc(Nc3ccncc3)c(N3CCOCC3)c(Nc3ccncc3)n2)c2c1CCC2` [Example 2-1-8, 2-[1-(2-fluoro-benzyl)-1,4,5,6-tetrahydrocyclopenta[c]pyrazol-3-yl]-5-(morpholin-4-yl)-N,N′-di(pyridin-4-yl)pyrimidin-4,6-diamine] is 3000 nM; for `CCOc1cc(F)c(Cn2nc(-c3ncc(OCCO[Si](C)(C)C(C)(C)C)c(Nc4ccncc4)n3)c3c2CCC3)c(F)c1` [Example 2-3-6, 5-(2-{[tert-butyl (dimethyl)silyl]oxy}ethoxy)-2-[1-(4-ethoxy-2,6-difluoro-benzyl)-1,4,5,6-tetrahydrocyclopenta [c]pyrazol-3-yl]-N-(pyridin-4-yl)pyrimidin-4-amine] it is 100 nM.
Regarding `CSCCOc1cnc(-c2nn(Cc3ccccc3F)c3c2CCC3)nc1Nc1ccncc1C(N)=O` [Example 2-3-8, 4-({2-[1-(2-fluoro-benzyl)-1,4,5,6-tetrahydrocyclopenta [c]pyrazol-3-yl]-5-[2-(methyl-sulfanyl)ethoxy]pyrimidin-4-yl}amino) nicotinamide], the IC50 in test [1] turned out to be 20 nM.
